The values below come from PMC10054226, “Rapid and Efficient Access to Novel Bio-Inspired 3-Dimensional Tricyclic SpiroLactams as Privileged Structures via Meyers’ Lactamization” (Pharmaceuticals, 2023).

Data set [1] can be described thus: Aqueous solubility in PBS at pH 7.4 (LC-MS/MS, AUC PBS/AUC MeOH x 200). The format is physicochemical. As to conditions: aqueous buffer, kinetic from dmso stock; PBS at pH 7.4, 24 h shaking at room temperature, triplicate. The procedure:
To determine compound solubility, 10 mM of the compound 44 in DMSO was diluted 50-fold either in PBS at pH 7.4 or in organic MeOH solvent in PP tubes (n = 3 for PBS and […]). The tubes were gently shaken for 24 h at room temperature. Then, the three PBS tubes and three of the six methanol tubes were centrifuged for 5 min at 4000 rpm and filtered over 0.45 μm filters (Millex-LH Millipore). The sample was diluted 50-fold in MeOH before LC-MS/MS analysis. The test was performed in triplicate. The solubility was determined by the following ratio: (AUCPBS/AUCMeOH) × 200.

A short description of data set [2]: LogD, octanol:PBS 1:1 at pH 7.4 (LC-MS/MS). The format is physicochemical. Particulars: octanol:PBS 1:1 at pH 7.4, 2 h at room temperature, triplicate. The procedure: To determine compound LogD, 10 mM of the compound 44 in DMSO was diluted 50-fold in a mixture of 1:1 octanol:PBS at pH 7.4. The mixture was gently shaken for 2 h at room temperature. Each sample was then diluted 50-fold in MeOH before LC-MS/MS analysis. For each compound, the test was performed in triplicate. LogD was determined as the logarithm of the ratio of product concentrations in octanol and PBS, respectively, determined by mass signals.

Data set [3] has as its system metastatic breast cancer cell lines (MDA-MB-231). Details: method as in PMID 21158420. Particulars: cited from earlier work.

As usually defined, the solubility is how much of the substance goes into solution per volume. Lower therefore signals a poorly soluble substance. Usually logD stands for the decadic logarithm of the distribution of all forms, ionised or not, between an organic phase and buffer at a given pH. The low end stands for lower lipophilicity, the high end for higher lipophilicity. In data set [1], `CC(C)[C@H]1CO[C@]23CCNC[C@H]2CCC(=O)N13` [Compound 44, (3S,7aR,11aR)-3-isopropyl-3,6,7,7a,8,9,10,11-octahydro-2H-oxazolo[2,3-j][1,6]naphthyridin-5-one;formic acid] displayed a solubility at 24 h above 200 µM. The logD at 2 h in data set [2] was -1.72. For `C=C1CCC2C(C)(C)CCCC23C(=O)OCC13` (stereo not drawn) [Antrocin], the “activity against the proliferation of metastatic breast cancer cell lines” value in data set [3] is listed as “significant activity”.
